Source: PMC6017749, “Exploring N-acyl-4-azatetracyclo[5.3.2.0^2,6.0^8,10]dodec-11-enes as 11β-HSD1 Inhibitors” (Molecules : A Journal of Synthetic Chemistry and Natural …, 2018)
Read-outs that look alike come from different tables or passages of the source.

Tests used:
[1] = design: method as in PMID 21471376, PMID 26306982; conditions: remaining compound after 30-min incubation in human liver microsomes; cited from earlier work
human 11β-HSD2 [2] = biological target: T1, human 11β-HSD2 (Homo sapiens, UniProt P80365); conditions: cited from earlier work; for IC50: read-out: HEK hHSD2 IC50
T1 construct: stably transfected with the full-length gene coding for human 11β-HSD2; expressed in transfected cells; host or cells: HEK293
T1 sequence (P80365 1-405): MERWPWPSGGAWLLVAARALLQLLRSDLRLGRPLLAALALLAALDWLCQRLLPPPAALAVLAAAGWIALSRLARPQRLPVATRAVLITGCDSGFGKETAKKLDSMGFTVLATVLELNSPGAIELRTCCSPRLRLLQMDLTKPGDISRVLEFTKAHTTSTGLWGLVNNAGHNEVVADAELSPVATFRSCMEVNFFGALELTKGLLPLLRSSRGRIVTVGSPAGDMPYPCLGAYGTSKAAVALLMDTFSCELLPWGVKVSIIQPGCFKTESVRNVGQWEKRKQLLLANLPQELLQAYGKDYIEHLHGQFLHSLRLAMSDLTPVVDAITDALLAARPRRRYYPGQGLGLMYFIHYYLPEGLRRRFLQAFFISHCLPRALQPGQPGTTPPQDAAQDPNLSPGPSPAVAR

mHSD1 = tested on: mHSD1; design: method as in PMID 21471376, PMID 26306982; conditions: murine enzyme; cited from earlier work
human 11β-HSD1 [3] = biological target: T2, human 11β-HSD1 (Homo sapiens, UniProt P28845); design: method as in PMID 21471376, PMID 26306982; conditions: previous inhibitors of the group; read-out: hHSD1 IC50; cited from earlier work
T2 construct: The assay uses human liver microsomes (HLM), where the enzyme is expressed; tissue Celsis In-vitro Technologies; host or cells: mixed sex human liver microsomes
T2 sequence (P28845 whole entry): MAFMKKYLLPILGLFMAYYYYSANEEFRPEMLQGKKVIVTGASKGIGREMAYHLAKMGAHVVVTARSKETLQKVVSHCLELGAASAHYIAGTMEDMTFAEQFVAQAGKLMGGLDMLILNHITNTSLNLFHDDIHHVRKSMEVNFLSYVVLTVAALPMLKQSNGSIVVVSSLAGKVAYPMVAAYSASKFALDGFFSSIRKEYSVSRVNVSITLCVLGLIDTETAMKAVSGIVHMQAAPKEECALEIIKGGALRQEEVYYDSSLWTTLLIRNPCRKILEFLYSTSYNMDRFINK

[4] = tested on: Senescence-Accelerated Mouse Prone 8 (SAMP8); design: method as in PMID 28818766; conditions: 12-month-old SAMP8 mice, four weeks; cited from earlier work
[5] = design: method as in PMID 21471376, PMID 26306982; conditions: remaining compound in mouse liver microsomes; cited from earlier work
human 11β-HSD2 [6] = biological target: T1, human 11β-HSD2; assay: Cellular 11β-HSD2 enzyme inhibition assay (HEK293 stably transfected); assay type: cell-based; conditions: HEK293, 10 µM, HEK293 transfected with human 11β-HSD2; read-out: HEK hHSD2 % inh at 10 µM
Experimental: (§1) Selectivity over 11β-HSD2 was also assessed in a cell-based assay using the same methodology as before (HEK293 stably transfected with the 11β-HSD2 gene). […] Finally, metabolic stability was determined using HLM, which are widely used to predict the degree of primary metabolic clearance in the liver. Each compound was incubated over 30 min with HLM and the percentage of remaining compound after this incubation period was determined by calculating compound concentration after and before by LC/MS.
For measurement of inhibition of 11β-HSD2, HEK293 cells stably transfected with the full-length gene coding for human 11β-HSD2 were used. The protocol was the same as for the cellular 11β-HSD1 enzyme inhibition assay, only changing the substrate, this time cortisol, and the concentrations of the tested compounds, 10, 1, and 0.1 µM. Reported values are the average of 1–3 measurements.

human 11β-HSD1 [7] = biological target: T2, human 11β-HSD1; assay: 11β-HSD1 enzyme inhibition assay in human liver microsomes (3H-cortisone to 3H-cortisol, SPA); assay type: biochemical; conditions: human liver microsomes; for inhibition at 10 µM: relative to no inhibitor control, read-out: hHSD1 % inh at 10 µM; for IC50: read-out: hHSD1 IC50
Experimental: A preliminary screen was performed using a human microsome assay with compounds at 10 µM in order to assess their potential inhibition of the target enzyme (Table 2). Percentage of inhibition was determined by measuring the conversion of ^3H-cortisone to ^3H-cortisol by capturing liberated ^3H-cortisol on anti-cortisol (HyTest Ltd., Turku, Finland)-coated scintillation proximity assay beads. The assay uses human liver microsomes (HLM), where the enzyme is expressed, and NADPH as the cofactor needed by the enzyme. Eight of the thirteen new compounds presented 100% inhibition of the human 11β-HSD1 in this single concentration assay, so dose-response curves were performed to get their IC50 values.
11β-HSD1 activity was determined in mixed sex, human liver microsomes (HLM, Celsis In-vitro Technologies) by measuring the conversion of ^3H-cortisone to ^3H-cortisol. Percentage inhibition was determined relative to a no inhibitor control. An amount of 5 μg of HLM were pre-incubated at 37 °C for 15 min with inhibitor and 1 mM NADPH in a final volume of 90 μL Krebs buffer. 10 μL of 200 nM ^3H-cortisone was then added followed by incubation at 37 °C for a further 30 min. The assay was terminated by rapid freezing on dry ice and ^3H-cortisone to ^3H-cortisol conversion determined in 50 μL of the defrosted reaction by capturing liberated ^3H-cortisol on anti-cortisol (HyTest Ltd)-coated scintillation proximity assay beads (protein A-coated YSi, GE Healthcare). Reported values are the average of 1–3 measurements. A nanomolar 11β-HSD1 inhibitor, UE2316, was added as a positive control within in each set of assays.

[8] = Microsomal stability assay in human liver microsomes; assay type: in vitro ADME; conditions: remaining compound after 30-min incubation in HLM
Experimental: as §1
The microsomal stability of each compound was determined using human liver microsomes (HLM, Celsis In-vitro Technologies, Baltimore, MD, USA). Microsomes were thawed and diluted to a concentration of 2 mg/mL in 50 mM sodium phosphate buffer pH 7.4. Each compound was diluted in 4 mM NADPH (made in the phosphate buffer above) to a concentration of 10 µM. Two identical incubation plates were prepared to act as a 0 min and a 30 min time point assay. 30 µL of each compound dilution was added in duplicate to the wells of a U-bottom 96-well plate and warmed at 37 °C for approximately 5 min. Verapamil, lidocaine, and propranolol at 10 µM concentration were utilized as reference compounds in this experiment. Microsomes were also pre-warmed at 37 °C before the addition of 30 µL to each well of the plate resulting in a final concentration of 1 mg/mL. The reaction was terminated at the appropriate time point (0 or 30 min) by addition of 60 µL of ice-cold 0.3 M trichloroacetic acid (TCA) per well. The plates were centrifuged for 10 min at 112× g and the supernatant fraction transferred to a fresh U-bottom 96-well plate. Plates were sealed and frozen at −20 °C prior to MS analysis. LC-MS/MS was used to quantify the peak area response of each compound before and after incubation with HLM using MS tune settings established and validated for each compound. These peak intensity measurements were used to calculate the percentage remaining after incubation with HLM for each hit compound. Reported values are the average of 1–3 measurements.

human 11β-HSD1 [9] = biological target: T2, human 11β-HSD1; assay: Cellular 11β-HSD1 enzyme inhibition assay (HEK293 stably transfected, cortisol by LC/MS); assay type: cell-based; conditions: HEK293 transfected with human 11β-HSD1, read-out: HEK hHSD1 % inh at 10 µM
Experimental: Those compounds with submicromolar IC50 values (4, 6, 8, 9 and 16) were further evaluated in terms of cellular potency, selectivity over 11β-HSD2, and metabolic stability as follows (Table 2, 5th, 6th, and 7th column, respectively). Cellular potency was assessed using Human Embryonic Kidney 293 (HEK293) cells stably transfected with the 11β-HSD1 gene. Cells were incubated with substrate (cortisone) and percentage of inhibition was determined by measuring the conversion of cortisone to cortisol by LC/MS. The results were in line with the previous results obtained in the microsomal assay.
The cellular 11β-HSD1 enzyme inhibition assay was performed using HEK293 cells stably transfected with the human 11β-HSD1 gene. Cells were incubated with substrate (cortisone) and product (cortisol) was determined by LC/MS. Cells were plated at 2 × 10^4 cells/well in a 96-well poly-D-lysine coated tissue culture microplate (Greiner Bio-one, Monroe, NC, USA) and incubated overnight at 37 °C in 5% CO2 […]. Compounds to be tested were solubilized in 100% dimethylsulfoxide (DMSO) at 10 mM and serially diluted in water and 10% DMSO to final concentration of 10 µM in 10% DMSO. Then 10 µL of each test dilution and 10 µL of 10% DMSO (for low and high control) were dispensed into the well of a new 96-well microplate (Greiner Bio-one). Medium was removed from the cell assay plate and 100 µL of Dulbecco’s Modified Eagle’s Medium DMEM solution (containing 1% penicillin, 1% streptomycin and 300 nM cortisone) added to each well. Cells were incubated for 2 h at 37 °C in 5% CO2 […]. Following incubation, medium was removed from each well into an Eppendorf containing 500 µL of ethyl acetate, mixed by vortex and incubated at r.t. for 5 min. A calibration curve of known concentrations of cortisol in assay medium was also set up and added to 500 µL of ethyl acetate, vortexed and incubated as above. The supernatant of each Eppendorf was removed to a 96-deep-well plate and dried down under […] at 65 °C. Each well was solubilized in 100 µL 70:30 H2O:acetonitrile (ACN) and removed to a 96-well V-bottomed plate for LC/MS analysis. Separation was carried out on a Sunfire 150 × 2.1 mm, […] column using a H2O:ACN gradient profile. Typical retention times were 2.71 min for cortisol and 2.80 min for cortisone. The peak area was calculated and the concentration of each compound determined from the calibration curve. Reported values are the average of 1–3 measurements.

[10] = HEK293 transfected with human 11β-HSD2

Structure (SMILES)	HLM % Parent [1]	HEK hHSD2 % inh 10 µM (human 11β-HSD2 [2]; 10 µM, HEK293 transfected with human 11β-HSD2)	IC50 (mHSD1)	IC50 (human 11β-HSD1 [3])	effect on memory deficits [4]	neuroprotective action [4]	MLM % Parent [5]	IC50 (human 11β-HSD2 [2]; [10])	inhibition at 10 µM (human 11β-HSD2 [6])	inhibition at 10 µM (human 11β-HSD1 [7])	IC50 (human 11β-HSD1 [7])	HLM % Parent [8]	inhibition at 10 µM (human 11β-HSD1 [9])	selectivity index against 11β-HSD2 isoform (human 11β-HSD2 [2]; 11β-HSD2 versus 11β-HSD1)	melting point
O=C(NC1C2CC3CC(C2)CC1C3)C1CCCCC1 (centres unmarked) [Compound 1]	74%	88%													
O=C(C1CCCCC1)N1CC2C3CCC(C4CC34)C2C1 (centres unmarked) [Compound 3]	94%		81 nM	29 nM	prevented memory deficits	displayed a neuroprotective action through reduction of neuroinflammation and oxidative stress	93%	100 to 1000 nM							
O=C(C1CCCCC1)N1CC2C3C=CC(C4CC34)C2C1 (centres unmarked) [Compound 2]	27%							1000 to 10000 nM	69%	100%	19 nM	27%	100%	at least 50 fold	
O=C(c1ccccc1)N1CC2C3C=CC(C4CC34)C2C1 (centres unmarked) [Compound 4, (4-Azatetracyclo[5.3.2.0^2,6.0^8,10]dodec-11-en-4-yl)(phenyl)methanone]									84%	100%	546 nM	85%	77%		65 to 66 °C
